Data reported in US8445008B2, “Reduction of infection associated with medical device” (Medtronic, Inc., priority 2008, dated 2013).
In brackets after ≈: the same amount, converted by molar mass.

Experiments:
[1] = Solubility in extraction/HPLC solvents; type: physicochemical
S. aureus = assay: Minimum inhibitory concentration against the S. aureus strain used in the studies; type: cell-based; settings: Staphylococcus aureus; strain of S. aureus used in the studies

With `CO[C@H]1/C=C/O[C@@]2(C)Oc3c(C)c(O)c4c(O)c(c(/C=N/N5CCN(C)CC5)c(O)c4c3C2=O)NC(=O)/C(C)=C\C=C\[C@H](C)[C@H](O)[C@@H](C)[C@@H](O)[C@@H](C)[C@H](OC(C)=O)[C@@H]1C` [rifampin] the “solubility in methanol and THF/ethanol 4:1” value [1] was “good solubility” and the MIC (S. aureus) was 0.06 µg/mL (≈ 0.0729 µM).
